Source: article PMC4033654 (Journal of Medicinal Chemistry, 2014)

Experiments:
TDP1 = conditions: cited from earlier work
MDR-1 = conditions: cited from earlier work
ABCG2 = conditions: cited from earlier work
MCF-7 = conditions: read-out: cytotoxicity GI50, breast MCF-7; cited from earlier work
HCT-116 = conditions: read-out: cytotoxicity GI50, colon HCT-116; cited from earlier work
SN12C = conditions: read-out: cytotoxicity GI50, renal SN12C; cited from earlier work
UACC-62 = conditions: read-out: cytotoxicity GI50, melanoma UACC-62; cited from earlier work
HOP-62 = conditions: read-out: cytotoxicity GI50, lung HOP-62; cited from earlier work
DU-145 = conditions: read-out: cytotoxicity GI50, prostate DU-145; cited from earlier work
OVCAR-3 = conditions: read-out: cytotoxicity GI50, ovarian OVCAR-3; cited from earlier work
[1] = system: all human cancer cell lines successfully tested; assay: NCI60 anti-proliferative screen, all cell lines; format: cell-based
recombinant TDP1 = recombinant TDP1 (Homo sapiens, UniProt Q9NUW8); assay: Gel-based assay measuring the inhibition of recombinant TDP1; format: biochemical
Chain of recombinant TDP1 (Q9NUW8 whole entry): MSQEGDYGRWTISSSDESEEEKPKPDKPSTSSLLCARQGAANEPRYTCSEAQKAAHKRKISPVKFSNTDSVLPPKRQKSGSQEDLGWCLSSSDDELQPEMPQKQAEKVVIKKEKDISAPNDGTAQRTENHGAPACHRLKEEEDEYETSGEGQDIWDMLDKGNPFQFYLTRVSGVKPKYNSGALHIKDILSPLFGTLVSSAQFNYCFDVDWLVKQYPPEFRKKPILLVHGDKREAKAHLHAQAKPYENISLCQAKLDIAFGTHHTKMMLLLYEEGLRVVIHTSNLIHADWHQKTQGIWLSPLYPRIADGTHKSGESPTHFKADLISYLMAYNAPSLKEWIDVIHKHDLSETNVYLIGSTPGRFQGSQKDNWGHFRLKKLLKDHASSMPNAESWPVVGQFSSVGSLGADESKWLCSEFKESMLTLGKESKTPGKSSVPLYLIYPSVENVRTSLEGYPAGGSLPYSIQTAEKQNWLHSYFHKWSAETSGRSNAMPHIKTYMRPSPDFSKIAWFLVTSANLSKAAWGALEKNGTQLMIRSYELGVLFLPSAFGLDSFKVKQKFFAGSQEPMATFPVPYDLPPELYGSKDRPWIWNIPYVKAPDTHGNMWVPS

For `N=C(N)c1ccc(-c2ccc(-c3ccc(C(=N)N)cc3)o2)cc1` [Furamidine (8), Furamidine], the “TDP1 inhibitor potency” value (TDP1) is given as “micromolar-range”.

In the case of `COc1cc2c3c(n(CCCN4CCOCC4)c(=O)c2cc1OC)-c1cc2c(cc1C3=O)OCO2` [Indotecan (6), indotecan], the “substrate for the MDR-1 efflux pump” value (MDR-1) is given as “not a substrate” and the “substrate for the ABCG2 efflux pump” value (ABCG2) is given as “not a substrate”.

In the case of `COc1cc2c3c(n(CCCNCCO)c(=O)c2cc1OC)-c1cc2c(cc1C3=O)OCO2` [compound 5], the GI50 (MCF-7) is given as under 10 nM, the GI50 (HCT-116) is given as 100 nM and the GI50 (SN12C) is given as under 10 nM. The GI50 (UACC-62) was 30 nM, the GI50 (HOP-62) was 20 nM and the GI50 (DU-145) was under 10 nM. The GI50 (OVCAR-3) was 500 nM.

In the case of `COc1cc2c(=O)n(CCCN3CCOCC3)c3c(c2cc1O)C(=O)c1cc2c(cc1-3)OCO2` [compound 13], the GI50 (MCF-7) is listed as 100 nM.

For `C=CCOc1cc2c3c(n(CCCN4CCOCC4)c(=O)c2cc1OC)-c1cc2c(cc1C3=O)OCO2` [compound 15, 2-(Allyloxy)-3-methoxy-6-(3-morpholinopropyl)-5H-[1,3]dioxolo[4′,5′:5,6]indeno [1,2-c]isoquinoline-5,12(6H)-dione], the “GI50 against various cell lines” value [1] was “submicromolar” and the “TDP1 inhibitory activity” value (recombinant TDP1) was “no detectable TDP1 inhibitory activity”.

For `COc1cc2c(=O)n(CCCN3CCOCC3)c3c(c2cc1OCCCN)C(=O)c1cc2c(cc1-3)OCO2.Cl` [compound 17, 2-(3-Aminopropoxy)-3-methoxy-6-(3-morpholinopropyl)-5H-[1,3]dioxolo[4′,5′:5,6]indeno[1,2-c]isoquinoline-5,12(6H)-dione], the “GI50 against various cell lines” value [1] was “submicromolar”.

With `COc1cc2c(=O)n(CCCN3CCOCC3)c3c(c2cc1OCCCN1CCOCC1)C(=O)c1cc2c(cc1-3)OCO2` [compound 20, 3-Methoxy-2-(3-morpholinopropoxy)-6-(3-morpholinopropyl)-5H-[1,3]dioxolo[4′,5′:5,6]indeno[1,2-c]isoquinoline-5,12(6H)-dione] the “GI50 against various cell lines” value [1] was “submicromolar” and the “TDP1 inhibitory activity” value (recombinant TDP1) was “no TDP1 inhibitory activity”.

With `COc1cc2c(=O)n(CCCN3CCOCC3)c3c(c2cc1OCCCN1CCN(C)CC1)C(=O)c1cc2c(cc1-3)OCO2` [compound 21, 3-Methoxy-2-(3-(4-methylpiperazin-1-yl)propoxy)-6-(3-morpholinopropyl)-5H-[1,3]dioxolo[4′,5′:5,6]indeno[1,2-c]isoquinoline-5,12(6H)-dione] the “TDP1 inhibitory activity” value (recombinant TDP1) was “no TDP1 inhibitory activity”.

In the case of `COc1cc2c(=O)n(CCCN3CCOCC3)c3c(c2cc1OCCCN1CCCCC1)C(=O)c1cc2c(cc1-3)OCO2` [compound 22, 3-Methoxy-6-(3-morpholinopropyl)-2-(3-(piperidin-1-yl)propoxy)-5H-[1,3]dioxolo[4′,5′:5,6]indeno[1,2-c]isoquinoline-5,12(6H)-dione], the “GI50 against various cell lines” value [1] is reported as “low micromolar”.

With `COC(=O)COc1cc2c3c(n(CCCN4CCOCC4)c(=O)c2cc1OC)-c1cc2c(cc1C3=O)OCO2` [compound 24, Methyl 2-((3-Methoxy-6-(3-morpholinopropyl)-5,12-dioxo-6,12-dihydro-5H-[1,3]dioxolo[4′,5′:5,6]indeno[1,2-c]isoquinolin-2-yl)oxy)acetate] the “GI50 against various cell lines” value [1] was “low micromolar”.

In the case of `COc1cc2c3c(n(CCCn4ccnc4)c(=O)c2cc1OC)-c1cc2c(cc1C3=O)OCO2` [indimitecan (7), indimitecan], the “substrate for the MDR-1 efflux pump” value (MDR-1) is given as “less affected than the camptothecins” and the “substrate for the ABCG2 efflux pump” value (ABCG2) is given as “less affected than the camptothecins”.
